Results taken from ChEMBL document CHEMBL1649448, “Atorvastatin is a promising partner for antimalarial drugs in treatment of Plasmodium falciparum malaria” (Antimicrob Agents Chemother, 2009).

What follows are compounds tested on Plasmodium falciparum (assay: Antimalarial activity against Plasmodium falciparum FCM29 assessed as incorporation of [3H]hypoxanthine after 48 hrs by scintillation counter).
Assay type: functional, organism-based

| Compound | IC50 |
| --- | --- |
| CC(C)c1c(C(=O)Nc2ccccc2)c(-c2ccccc2)c(-c2ccc(F)cc2)n1CC[C@@H](O)C[C@@H](O)CC(=O)O [ATORVASTATIN] | 2.5 µM |

What follows are compounds tested on Plasmodium falciparum (assay: Antimalarial activity against Plasmodium falciparum HB3 assessed as incorporation of [3H]hypoxanthine after 48 hrs by scintillation counter).
Assay type: functional, organism-based

| Compound | IC50 |
| --- | --- |
| CC(C)c1c(C(=O)Nc2ccccc2)c(-c2ccccc2)c(-c2ccc(F)cc2)n1CC[C@@H](O)C[C@@H](O)CC(=O)O [ATORVASTATIN] | 2.5 µM |

What follows are compounds tested on Plasmodium falciparum (assay: Antimalarial activity against Plasmodium falciparum IMT 8425 assessed as incorporation of [3H]hypoxanthine after 48 hrs by scintillation counter).
Assay type: functional, organism-based

| Compound | IC50 |
| --- | --- |
| CC(C)c1c(C(=O)Nc2ccccc2)c(-c2ccccc2)c(-c2ccc(F)cc2)n1CC[C@@H](O)C[C@@H](O)CC(=O)O [ATORVASTATIN] | 2.5 µM |

Each compound was assayed on Plasmodium falciparum (assay: Antimalarial activity against Plasmodium falciparum IMT 31 harboring Ppcrt I371R mutant gene assessed as incorporation of [3H]hypoxanthine after 48 hrs by scintillation counter).
Assay type: functional, organism-based

| Compound | IC50 |
| --- | --- |
| CC(C)c1c(C(=O)Nc2ccccc2)c(-c2ccccc2)c(-c2ccc(F)cc2)n1CC[C@@H](O)C[C@@H](O)CC(=O)O [ATORVASTATIN] | 5.9 µM |

Each compound was assayed on Plasmodium falciparum (assay: Antimalarial activity against Plasmodium falciparum IMT K14 harboring Ppcrt M74I, N75E, K76T, A220S, Q271E, N326S mutant gene, Pmdr1 Y184F, S1034C, N1042D, D1246Y mutant gene and Pfmrp H191Y and S437A mutant gene assessed as incorporation of [3H]hypoxanthine after 48 hrs by scintillation counter).
Assay type: functional, organism-based

| Compound | IC50 |
| --- | --- |
| CC(C)c1c(C(=O)Nc2ccccc2)c(-c2ccccc2)c(-c2ccc(F)cc2)n1CC[C@@H](O)C[C@@H](O)CC(=O)O [ATORVASTATIN] | 6.9 µM |

These compounds were tested on Plasmodium falciparum (assay: Antimalarial activity against Plasmodium falciparum IMT 10336 assessed as incorporation of [3H]hypoxanthine after 48 hrs by scintillation counter).
Assay type: functional, organism-based

| Compound | IC50 |
| --- | --- |
| CC(C)c1c(C(=O)Nc2ccccc2)c(-c2ccccc2)c(-c2ccc(F)cc2)n1CC[C@@H](O)C[C@@H](O)CC(=O)O [ATORVASTATIN] | 2.5 µM |

What follows are compounds tested on Plasmodium falciparum (assay: Antimalarial activity against Plasmodium falciparum IMT 9881 assessed as incorporation of [3H]hypoxanthine after 48 hrs by scintillation counter).
Assay type: functional, organism-based

| Compound | IC50 |
| --- | --- |
| CC(C)c1c(C(=O)Nc2ccccc2)c(-c2ccccc2)c(-c2ccc(F)cc2)n1CC[C@@H](O)C[C@@H](O)CC(=O)O [ATORVASTATIN] | 2.5 µM |

These compounds were tested on Plasmodium falciparum (assay: Antimalarial activity against Plasmodium falciparum IMT Bres assessed as incorporation of [3H]hypoxanthine after 48 hrs by scintillation counter).
Assay type: functional, organism-based

| Compound | IC50 |
| --- | --- |
| CC(C)c1c(C(=O)Nc2ccccc2)c(-c2ccccc2)c(-c2ccc(F)cc2)n1CC[C@@H](O)C[C@@H](O)CC(=O)O [ATORVASTATIN] | 2.5 µM |

Each compound was assayed on Plasmodium falciparum (assay: Antimalarial activity against Plasmodium falciparum HB3 harboring Ppcrt I371R mutant gene and Pfmdr1 Y184F mutant gene assessed as incorporation of [3H]hypoxanthine after 48 hrs by scintillation counter).
Assay type: functional, organism-based

| Compound | IC50 |
| --- | --- |
| CC(C)c1c(C(=O)Nc2ccccc2)c(-c2ccccc2)c(-c2ccc(F)cc2)n1CC[C@@H](O)C[C@@H](O)CC(=O)O [ATORVASTATIN] | 10.8 µM |

Each compound was assayed on Plasmodium falciparum (assay: Antimalarial activity against Plasmodium falciparum IMT A4 assessed as incorporation of [3H]hypoxanthine after 48 hrs by scintillation counter).
Assay type: functional, organism-based

| Compound | IC50 |
| --- | --- |
| CC(C)c1c(C(=O)Nc2ccccc2)c(-c2ccccc2)c(-c2ccc(F)cc2)n1CC[C@@H](O)C[C@@H](O)CC(=O)O [ATORVASTATIN] | 2.5 µM |

These compounds were tested on Plasmodium falciparum (assay: Antimalarial activity against Plasmodium falciparum D6 harboring Ppcrt I371R mutant gene assessed as incorporation of [3H]hypoxanthine after 48 hrs by scintillation counter).
Assay type: functional, organism-based

| Compound | IC50 |
| --- | --- |
| CC(C)c1c(C(=O)Nc2ccccc2)c(-c2ccccc2)c(-c2ccc(F)cc2)n1CC[C@@H](O)C[C@@H](O)CC(=O)O [ATORVASTATIN] | 5.9 µM |

These compounds were tested on Plasmodium falciparum (assay: Antimalarial activity against Plasmodium falciparum IMT Vol harboring Ppcrt M74I, N75E, K76T, A220S, Q271E, N326S mutant gene, Pmdr1 N86Y mutant gene and Pfmrp H191Y and S437A mutant gene assessed as incorporation of [3H] hypoxanthine after 48 hrs by scintillation counter).
Assay type: functional, organism-based

| Compound | IC50 |
| --- | --- |
| CC(C)c1c(C(=O)Nc2ccccc2)c(-c2ccccc2)c(-c2ccc(F)cc2)n1CC[C@@H](O)C[C@@H](O)CC(=O)O [ATORVASTATIN] | 7.6 µM |

These compounds were tested on Plasmodium falciparum (assay: Antimalarial activity against Plasmodium falciparum PA harboring Ppcrt M74I, N75E, K76T, A220S, Q271E, N326S and I356T mutant gene, Pmdr1 N86Y mutant gene and Pfmrp H191Y and S437A mutant gene assessed as incorporation of [3H]hypoxanthine after 48 hrs by scintillation counter).
Assay type: functional, organism-based

| Compound | IC50 |
| --- | --- |
| CC(C)c1c(C(=O)Nc2ccccc2)c(-c2ccccc2)c(-c2ccc(F)cc2)n1CC[C@@H](O)C[C@@H](O)CC(=O)O [ATORVASTATIN] | 8.2 µM |

What follows are compounds tested on Plasmodium falciparum (assay: Antimalarial activity against Plasmodium falciparum IMT Bres harboring Ppcrt M74I, N75E, K76T, A220S, Q271E, N326S and I356T mutant gene, Pmdr1 N86Y mutant gene and Pfmrp H191Y and S437A mutant gene assessed as incorporation of [3H]hypoxanthine after 48 hrs by scintillation counter).
Assay type: functional, organism-based

| Compound | IC50 |
| --- | --- |
| CC(C)c1c(C(=O)Nc2ccccc2)c(-c2ccccc2)c(-c2ccc(F)cc2)n1CC[C@@H](O)C[C@@H](O)CC(=O)O [ATORVASTATIN] | 5.8 µM |

These compounds were tested on Plasmodium falciparum (assay: Antimalarial activity against Plasmodium falciparum IMT Guy assessed as incorporation of [3H]hypoxanthine after 48 hrs by scintillation counter).
Assay type: functional, organism-based

| Compound | IC50 |
| --- | --- |
| CC(C)c1c(C(=O)Nc2ccccc2)c(-c2ccccc2)c(-c2ccc(F)cc2)n1CC[C@@H](O)C[C@@H](O)CC(=O)O [ATORVASTATIN] | 2.5 µM |

These compounds were tested on Plasmodium falciparum (assay: Antimalarial activity against Plasmodium falciparum IMT L1 assessed as incorporation of [3H]hypoxanthine after 48 hrs by scintillation counter).
Assay type: functional, organism-based

| Compound | IC50 |
| --- | --- |
| CC(C)c1c(C(=O)Nc2ccccc2)c(-c2ccccc2)c(-c2ccc(F)cc2)n1CC[C@@H](O)C[C@@H](O)CC(=O)O [ATORVASTATIN] | 2.5 µM |

Each compound was assayed on Plasmodium falciparum (assay: Antimalarial activity against Plasmodium falciparum 3D7 assessed as incorporation of [3H]hypoxanthine after 48 hrs by scintillation counter).
Assay type: functional, organism-based

| Compound | IC50 |
| --- | --- |
| CC(C)c1c(C(=O)Nc2ccccc2)c(-c2ccccc2)c(-c2ccc(F)cc2)n1CC[C@@H](O)C[C@@H](O)CC(=O)O [ATORVASTATIN] | 2.5 µM |

Each compound was assayed on Plasmodium falciparum (assay: Antimalarial activity against Plasmodium falciparum FCR3 assessed as incorporation of [3H]hypoxanthine after 48 hrs by scintillation counter).
Assay type: functional, organism-based

| Compound | IC50 |
| --- | --- |
| CC(C)c1c(C(=O)Nc2ccccc2)c(-c2ccccc2)c(-c2ccc(F)cc2)n1CC[C@@H](O)C[C@@H](O)CC(=O)O [ATORVASTATIN] | 2.5 µM |

Each compound was assayed on Plasmodium falciparum (assay: Antimalarial activity against Plasmodium falciparum FCR3 harboring Ppcrt M74I, N75E, K76T, A220S, Q271E, N326S and I356T mutant gene, Pmdr1 N86Y mutant gene and Pfmrp H191Y and S437A mutant gene assessed as incorporation of [3H]hypoxanthine after 48 hrs by scintillation counter).
Assay type: functional, organism-based

| Compound | IC50 |
| --- | --- |
| CC(C)c1c(C(=O)Nc2ccccc2)c(-c2ccccc2)c(-c2ccc(F)cc2)n1CC[C@@H](O)C[C@@H](O)CC(=O)O [ATORVASTATIN] | 8.7 µM |

Each compound was assayed on Plasmodium falciparum (assay: Antimalarial activity against Plasmodium falciparum 106/1 assessed as incorporation of [3H]hypoxanthine after 48 hrs by scintillation counter).
Assay type: functional, organism-based

| Compound | IC50 |
| --- | --- |
| CC(C)c1c(C(=O)Nc2ccccc2)c(-c2ccccc2)c(-c2ccc(F)cc2)n1CC[C@@H](O)C[C@@H](O)CC(=O)O [ATORVASTATIN] | 2.5 µM |

Each compound was assayed on Plasmodium falciparum (assay: Antimalarial activity against Plasmodium falciparum 3D7 harboring Ppcrt I371R mutant gene and Pfnhe-1 ms4760 microsatellite mutant assessed as incorporation of [3H]hypoxanthine after 48 hrs by scintillation counter).
Assay type: functional, organism-based

| Compound | IC50 |
| --- | --- |
| CC(C)c1c(C(=O)Nc2ccccc2)c(-c2ccccc2)c(-c2ccc(F)cc2)n1CC[C@@H](O)C[C@@H](O)CC(=O)O [ATORVASTATIN] | 9 µM |
